Reference: patent US20040138094A1, “Treatment regimes” (priority 2003, published 2004)

How the values were obtained:
THP1 macrophages = assay: ApoA1-specific cholesterol efflux from THP1 macrophages; type: cell-based, human
Method: (§1) Following differentiation to macrophages, THP1 cells were washed in serum-free medium and incubated in 5% FBS medium containing 1 μCi/mL of [^3H]-cholesterol (New England Nuclear) and 0.2% fatty acid-free BSA (faf BSA) for a further 24 h. The cells were washed in serum-free medium and then incubated for 24 h in serum-free medium supplemented with 1.5% faf BSA±test compound or vehicle (0.1% DMSO). The equilibration medium was removed and the cells washed twice in serum-free medium. Serum-free DMEM containing compound±purified human apolipoprotein (apo) Al ([…], Athens Research & Technology) was added. The cells were maintained for 24 h before medium and cell extract samples were generated. Scintillation counting was performed to determine the percentage cellular cholesterol efflux±apoAl. 1BR3N human skin fibroblast cells were plated in 6-well plates at a density of 1×10^6 cells/well in DMEM medium containing 10% FBS and cultured for 24 h. Efflux studies were performed as in the THP1 macrophages except that the cells were maintained for 48 h before scintillation counting was performed.

[1] = tested on: ABCA1 mRNA in THP1 macrophages; assay: ABCA1 mRNA expression by RTQ-PCR in THP1 macrophages; type: cell-based, human; conditions: for Induction of ABCA1 mRNA expression (in words): THP1 macrophages, 100 nM, FIG. 1A
Method: (§2) THP1 human monocyte cells (ATCC TID-202), in 6-well plates at a density of 1×10^6 cells/well in RPMI 1640 medium containing 10% FBS, were differentiated into macrophages by treatment with PMA (100 ng/ml) for 5 days. 1BR3N human skin fibroblasts (ECACC 90020508) and FHS74 human intestinal cells (ATCC CCL-241) were plated in 6 well plates at a density of 1×10^6 cells/well in the recommended maintenance media. Cells were treated with vehicle (0.1% DMSO) or test compound for 48 h prior to harvesting. Total RNA was generated using the Qiagen RNeasy Mini Kit and DNase treated according to the manufacturer's protocol (Ambion). ABCA1 expression was analysed using RTQ-PCR on an ABI PRISM 7700 sequence detection system (P. E. Applied Biosystems). Primer/probe sequences used were as follows: ABCA1 forward primer 5′-[…]-3′, (Seq ID No:1) reverse primer 5′-[…]-3′, (Seq ID No:2) probe 5′FAM-[…]-TAMRA3′ (Seq ID No:3) Expression data were normalised to 18S as described by the vendor.

[2] = tested on: ABCA1 mRNA in FHS74 human intestinal cells; assay: ABCA1 mRNA expression by RTQ-PCR in FHS74 human intestinal cells; type: cell-based
Method: as §2

[3] = tested on: ABCA1 mRNA in 1BR3N human skin fibroblasts; assay: ABCA1 mRNA expression by RTQ-PCR in 1BR3N human skin fibroblasts; type: cell-based
Method: as §2

[4] = tested on: 1BR3N human skin fibroblasts; assay: ApoA1-specific cholesterol efflux from 1BR3N human skin fibroblasts; type: cell-based
Method: as §1

ABCA1 in macrophages = conditions: 50 μM, reported in ref 16; cited from earlier work
macrophages = conditions: 50 μM, reported in ref 16; cited from earlier work
[5] = THP1 macrophages, 100 nM, FIG. 1B

## CC(C)(Sc1ccc(CCN(CCCCC2CCCCC2)C(=O)NC2CCCCC2)cc1)C(=O)O [GW7647, reference compound]
THP1 macrophages; [5]
  Effect on cholesterol efflux (in words): ineffective
[1]
  Induction of ABCA1 mRNA expression (in words): only a weak effect

## Cc1cc(SCc2sc(-c3ccc(C(F)(F)F)cc3)nc2C)ccc1OCC(=O)O [GW501516, 2-(2-methyl-4[({4-methyl-2[4-(trifluoromethyl)phenyl]-1,3-thiazol-5-yl}methyl)sulfanyl]phenoxy}acetic acid]
[2]; FHS74 human intestinal cells
  Increase in ABCA1 expression: 2.1 fold
[2]; FHS74 intestinal, 48 h, (GW-vehicle)/vehicle × 100, mean ± S.D., triplicate
  ABCA1 mRNA (% increase): 115 ± 30%
THP1 macrophages; THP1 macrophage, (GW-vehicle)/vehicle × 100, mean ± S.D., triplicate
  Cholesterol efflux (% increase): 100 ± 15%
THP1 macrophages; [5]
  Increase in cholesterol efflux to apoA1: 2 fold
[3]; 1BR3N fibroblast, 48 h, (GW-vehicle)/vehicle × 100, mean ± S.D., triplicate
  ABCA1 mRNA (% increase): 240 ± 25%
[3]; 1BR3N human skin fibroblasts
  Increase in ABCA1 expression: 3.4 fold
[1]; THP1 macrophage, 48 h, (GW-vehicle)/vehicle × 100, mean ± S.D., triplicate
  ABCA1 mRNA (% increase): 460 ± 150%
[1]
  Induction of ABCA1 mRNA expression (in words): strong induction
[4]; 1BR3N fibroblast, (GW-vehicle)/vehicle × 100, mean ± S.D., triplicate
  Cholesterol efflux (% increase): 110 ± 10%
[4]; 1BR3N human skin fibroblasts
  Increase in apoA1-specific cholesterol efflux: 2 fold

## COC(=O)c1ccccc1N[C@@H](Cc1ccc(OCCc2nc(-c3ccccc3)oc2C)cc1)C(=O)O [GW7845, reference compound]
THP1 macrophages; [5]
  Effect on cholesterol efflux (in words): ineffective
[1]
  Induction of ABCA1 mRNA expression (in words): also induced ABCA1 expression

## Cc1cccc(Nc2cc(Cl)nc(SCC(=O)O)n2)c1C [Wy14,643]
ABCA1 in macrophages
  ABCA1 expression (in words): induces
macrophages
  Cholesterol efflux from macrophages (in words): induces
